Source: patent US20070275967A1, “Pyrazolinols” (BAYER CROPSCIENCE AKTIENGESELLSCHAFT, priority 2003, published 2007)

Experiment: logP determination by HPLC on reversed-phase column (EEC Directive 79/831 Annex V.A8)
Type: physicochemical
Conditions: acidic range (pH 2.3), marked a); 0.1% aqueous phosphoric acid/acetonitrile gradient; reversed-phase C 18; 43° C.
Protocol: The logP values given in the table were determined in accordance with EEC Directive 79/831 Annex V.A8 by HPLC (High Performance Liquid Chromatography) on a reversed-phase column (C 18). Temperature: 43° C. (a) Mobile phases for the determination in the acidic range (pH 2.3): 0.1% aqueous phosphoric acid, acetonitrile; linear gradient from 10% acetonitrile to 90% acetonitrile—the corresponding measurement results in table 1 are marked a). (b) Mobile phases for the determination in the neutral range (pH 7.5): 0.01-molar aqueous phosphate buffer solution, acetonitrile; linear gradient from 10% acetonitrile to 90% acetonitrile—the corresponding measurement results in table 1 are marked b). Calibration was carried out using unbranched alkan-2-ones (having 3 to 16 carbon atoms) with known logP values (determination of the logP values by the retention times using linear interpolation between two successive alkanones).

Row | Structure (SMILES) | logP
1 | CC(C)CC1=NN(C(=O)Nc2ccccc2)C(O)(C(F)(F)F)C1 (racemic) [Example 3] | logP = 3.72^a)
2 | CC(C)CC1=NN(C(=O)Nc2ccc(Cl)c(Cl)c2)C(O)(C(F)(F)F)C1 (racemic) [Example 4] | logP = 4.63^a)
3 | CC(C)CC1=NN(C(=O)Nc2ccc(Cl)cc2)C(O)(C(F)(F)F)C1 (racemic) [Example 5] | logP = 4.18^a)
4 | CC(C)CC1=NN(C(=S)Nc2ccccc2)C(O)(C(F)(F)F)C1 (racemic) [Example 7] | logP = 4.31^a)
5 | CC(C)CC1=NN(C(=S)Nc2ccccc2F)C(O)(C(F)(F)F)C1 (racemic) [Example 11] | logP = 4.23^a)
6 | CCC1=NN(C(=O)Nc2ccc(Cl)cc2)C(O)(C(F)(F)F)C1 (racemic) [Example 13] | logP = 3.41^a)
7 | CCC1=NN(C(=S)Nc2ccc(C(C)(C)C)cc2)C(O)(C(F)(F)F)C1 (racemic) [Example 16] | logP = 4.84^a)
8 | CC(C)C1=NN(C(=O)Nc2ccc(OC(F)(F)F)cc2)C(O)(C(F)(F)F)C1 (racemic) [Example 17] | logP = 4.09^a)
9 | CC(C)C1=NN(C(=O)Nc2ccc(Cl)cc2)C(O)(C(F)(F)F)C1 (racemic) [Example 18] | logP = 3.79^a)
10 | CC(C)C1=NN(C(=S)Nc2ccc(C(C)(C)C)cc2)C(O)(C(F)(F)F)C1 (racemic) [Example 21] | logP = 5.18^a)
11 | COc1ccc(NC(=S)N2N=C(CC(C)C)CC2(O)C(F)(F)F)cc1 (racemic) [Example 23] | logP = 4.17^a)
12 | CC(C)CC1=NN(C(=S)Nc2ccc(C(C)(C)C)cc2)C(O)(C(F)(F)F)C1 (racemic) [Example 25] | logP = 5.50^a)
13 | CC(C)C1=NN(C(=O)Nc2ccccc2)C(O)(C(F)(F)F)C1 (racemic) [Example 28] | logP = 3.32^a)
14 | CC(C)C1=NN(C(=S)Nc2cccnc2)C(O)(C(F)(F)F)C1 (racemic) [Example 35] | logP = 1.96^a)
15 | CC(C)C1=NN(C(=S)Nc2ccc(OC(F)(F)F)cc2)C(O)(C(F)(F)F)C1 (racemic) [Example 36] | logP = 4.61^a)
16 | CC(C)C1=NN(C(=O)Nc2ccccc2Cl)C(O)(C(F)(F)F)C1 (racemic) [Example 37] | logP = 4.10^a)
17 | CCC1=NN(C(=S)Nc2ccccc2)C(O)(C(F)(F)F)C1 (racemic) [Example 38] | logP = 3.57^a)
18 | CCC1=NN(C(=O)Nc2ccccc2)C(O)(C(F)(F)F)C1 (racemic) [Example 39] | logP = 2.91^a)
19 | CC(C)C1=NN(C(=S)NCc2ccco2)C(O)(C(F)(F)F)C1 (racemic) [Example 41] | logP = 3.78^a)
20 | CC(C)C1=NN(C(N)=S)C(O)(C(F)(F)F)C1 (racemic) [Example 45] | logP = 2.47^a)
21 | CC(C)C1=NN(C(=O)Nc2cccnc2)C(O)(C(F)(F)F)C1 (racemic) [Example 47] | logP = 1.15^a)
22 | CC(C)C1=NN(C(=O)Nc2ccccn2)C(O)(C(F)(F)F)C1 (racemic) [Example 48] | logP = 1.78^a)
23 | CCC1=NN(C(=O)Nc2ccc(Cl)cc2)C(O)(C(F)(F)F)C1 (racemic) [Example 49] | logP = 3.43^a)
24 | CCC1=NN(C(=O)Nc2ccc(F)cc2)C(O)(C(F)(F)F)C1 (centres unmarked) [Example 50] | logP = 2.96^a)
25 | CCC1=NN(C(=O)Nc2ccc(C#N)cc2)C(O)(C(F)(F)F)C1 (centres unmarked) [Example 51] | logP = 2.65^a)

Row | Structure (SMILES) | logP
26 | O=C(Nc1ccc(OC(F)(F)F)cc1)N1N=C(C2(Cl)CC2)CC1(O)C(F)(F)F (centres unmarked) [Example 52] | logP = 4.07^a)
27 | CCC1=NN(C(=S)Nc2ccc(C(F)(F)F)cc2)C(O)(C(F)(F)F)C1 (centres unmarked) [Example 54] | logP = 4.27^a)
28 | CCC1=NN(C(=S)Nc2ccc(Cl)cc2Cl)C(O)(C(F)(F)F)C1 (centres unmarked) [Example 57] | logP = 4.53^a)
29 | CC(C)(C)C1=NN(C(=O)Nc2ccc(Cl)cc2)C(O)(C(F)(F)F)C1 (centres unmarked) [Example 58] | logP = 4.16^a)
30 | CC(C)(C)C1=NN(C(=O)Nc2ccc(Cl)c(Cl)c2)C(O)(C(F)(F)F)C1 (centres unmarked) [Example 59] | logP = 4.62^a)
31 | CC(C)(C)C1=NN(C(=O)Nc2ccc(C#N)cc2)C(O)(C(F)(F)F)C1 (centres unmarked) [Example 60] | logP = 3.34^a)
32 | COc1ccc(NC(=S)N2N=C(C(C)(C)C)CC2(O)C(F)(F)F)cc1 (centres unmarked) [Example 61] | logP = 3.54^a)
33 | Cc1ccc(NC(=S)N2N=C(C(C)(C)C)CC2(O)C(F)(F)F)cc1 (centres unmarked) [Example 62] | logP = 4.62^a)
34 | CC(C)(C)C1=NN(C(=O)Nc2ccccc2)C(O)(C(F)(F)F)C1 (centres unmarked) [Example 65] | logP = 4.58^a)
35 | CC(C)(C)C1=NN(C(=O)NC2CCCCC2)C(O)(C(F)(F)F)C1 (centres unmarked) [Example 66] | logP = 3.68^a)
36 | CC(C)(C)C1=NN(C(=O)Nc2ccc(OC(F)(F)F)cc2)C(O)(C(F)(F)F)C1 (centres unmarked) [Example 67] | logP = 4.41^a)
37 | CC(C)(C)C1=NN(C(=O)Nc2ccc(Cl)cc2Cl)C(O)(C(F)(F)F)C1 (centres unmarked) [Example 68] | logP = 5.18^a)
38 | CC(C)(C)C1=NN(C(=O)Nc2ccccc2Cl)C(O)(C(F)(F)F)C1 (centres unmarked) [Example 69] | logP = 4.48^a)
39 | CC(C)(C)C1=NN(C(=O)NCc2ccc(Cl)cc2)C(O)(C(F)(F)F)C1 (centres unmarked) [Example 71] | logP = 3.94^a)
40 | CC(C)(C)C1=NN(C(=O)NCc2ccccc2Cl)C(O)(C(F)(F)F)C1 (centres unmarked) [Example 72] | logP = 3.97^a)
41 | CCC1=NN(C(=O)Nc2cc(Cl)cc(Cl)c2)C(O)(C(F)(F)F)C1 (centres unmarked) [Example 76] | logP = 4.34^a)
42 | OC1(C(F)(F)F)CC(C2(Cl)CC2)=NN1C(=S)Nc1ccc(C(F)(F)F)cc1 (centres unmarked) [Example 78] | logP = 4.41^a)
43 | OC1(C(F)(F)F)CC(C2(Cl)CC2)=NN1C(=S)Nc1ccc(Cl)cc1 (centres unmarked) [Example 79] | logP = 4.36^a)
44 | O=C(Nc1ccc(Cl)cc1)N1N=C(c2ccco2)CC1(O)C(F)(F)F (centres unmarked) [Example 80] | logP = 3.41^a)
45 | OC1(C(F)(F)F)CC(c2ccco2)=NN1C(=S)Nc1ccc(Cl)cc1 (centres unmarked) [Example 81] | logP = 3.99^a)
46 | O=C(Nc1ccc(Cl)cc1)N1N=C(c2ccccc2)CC1(O)C(F)(F)F (centres unmarked) [Example 82] | logP = 3.97^a)
47 | CCC1=NN(C(=S)Nc2c(F)cccc2F)C(O)(C(F)(F)F)C1 (centres unmarked) [Example 84] | logP = 3.30^a)
48 | CCC1=NN(C(=S)Nc2cc(Cl)ccc2Cl)C(O)(C(F)(F)F)C1 (centres unmarked) [Example 85] | logP = 4.47^a)
49 | CCC1=NN(C(=S)Nc2ccc(OC)cc2)C(O)(C(F)(F)F)C1 (centres unmarked) [Example 86] | logP = 3.47^a)
50 | CCC1=NN(C(=S)Nc2cccc(Cl)c2Cl)C(O)(C(F)(F)F)C1 (centres unmarked) [Example 87] | logP = 4.29^a)

Row | Structure (SMILES) | logP
51 | CCC1=NN(C(=S)Nc2ccc(Oc3ccccc3)cc2)C(O)(C(F)(F)F)C1 (centres unmarked) [Example 88] | logP = 4.52^a)
52 | CCC1=NN(C(=S)Nc2c(F)cc(F)cc2F)C(O)(C(F)(F)F)C1 (centres unmarked) [Example 89] | logP = 3.52^a)
53 | CCC1=NN(C(=S)Nc2cc(C(F)(F)F)ccc2Cl)C(O)(C(F)(F)F)C1 (centres unmarked) [Example 90] | logP = 4.51^a)
54 | CCC1=NN(C(=S)Nc2ccccc2OC)C(O)(C(F)(F)F)C1 (centres unmarked) [Example 91] | logP = 3.85^a)
55 | CCC1=NN(C(=S)Nc2cc(Cl)cc(Cl)c2)C(O)(C(F)(F)F)C1 (centres unmarked) [Example 92] | logP = 4.75^a)
56 | CCC1=NN(C(=S)Nc2ccc(F)cc2)C(O)(C(F)(F)F)C1 (centres unmarked) [Example 93] | logP = 3.62^a)
57 | CCC1=NN(C(=S)Nc2cccc(F)c2)C(O)(C(F)(F)F)C1 (centres unmarked) [Example 94] | logP = 3.71^a)
58 | CCC1=NN(C(=S)Nc2ccc(OC(F)(F)F)cc2)C(O)(C(F)(F)F)C1 (centres unmarked) [Example 95] | logP = 4.31^a)
59 | CCC1=NN(C(=S)Nc2ccc(Cl)c(Cl)c2)C(O)(C(F)(F)F)C1 (centres unmarked) [Example 96] | logP = 4.61^a)
60 | CCC1=NN(C(=O)NCc2ccc(Cl)c(Cl)c2)C(O)(C(F)(F)F)C1 (centres unmarked) [Example 97] | logP = 4.34^a)
61 | CCC1=NN(C(=S)Nc2ccccc2F)C(O)(C(F)(F)F)C1 (centres unmarked) [Example 98] | logP = 3.51^a)
62 | CCC1=NN(C(=S)Nc2ccc(C(C)(C)C)cc2)C(O)(C(F)(F)F)C1 (centres unmarked) [Example 99] | logP = 4.85^a)
63 | COc1ccc(NC(=S)N2N=C(C)CC2(O)C(F)(F)F)cc1 (centres unmarked) [Example 102] | logP = 3.10^a)
64 | CC1=NN(C(=S)Nc2cccc(Cl)c2Cl)C(O)(C(F)(F)F)C1 (centres unmarked) [Example 103] | logP = 3.75^a)
65 | CC1=NN(C(=S)Nc2ccc(Oc3ccccc3)cc2)C(O)(C(F)(F)F)C1 (centres unmarked) [Example 104] | logP = 4.15^a)
66 | CC1=NN(C(=S)Nc2c(F)cc(F)cc2F)C(O)(C(F)(F)F)C1 (centres unmarked) [Example 105] | logP = 3.12^a)
67 | CC1=NN(C(=S)Nc2cc(C(F)(F)F)ccc2Cl)C(O)(C(F)(F)F)C1 (centres unmarked) [Example 107] | logP = 3.94^a)
68 | COc1ccccc1NC(=S)N1N=C(C)CC1(O)C(F)(F)F (centres unmarked) [Example 108] | logP = 3.36^a)
69 | CC1=NN(C(=S)Nc2cc(Cl)cc(Cl)c2)C(O)(C(F)(F)F)C1 (centres unmarked) [Example 109] | logP = 4.18^a)
70 | CC1=NN(C(=S)Nc2ccc(F)cc2)C(O)(C(F)(F)F)C1 (centres unmarked) [Example 110] | logP = 2.06^a)
71 | CC1=NN(C(=S)Nc2cccc(F)c2)C(O)(C(F)(F)F)C1 (centres unmarked) [Example 111] | logP = 3.18^a)
72 | CC1=NN(C(=S)Nc2ccc(OC(F)(F)F)cc2)C(O)(C(F)(F)F)C1 (centres unmarked) [Example 112] | logP = 3.89^a)
73 | CC1=NN(C(=S)NCc2ccc(Cl)c(Cl)c2)C(O)(C(F)(F)F)C1 (centres unmarked) [Example 113] | logP = 4.26^a)
74 | CC1=NN(C(=O)Nc2ccc(Cl)c(Cl)c2)C(O)(C(F)(F)F)C1 (centres unmarked) [Example 116] | logP = 3.84^a)
